The source of these data is ChEMBL document CHEMBL1799986, “In vitro inhibition of α-carbonic anhydrase isozymes by some phenolic compounds” (Bioorg Med Chem Lett, 2011).

As usually defined, the Ki is a measure of affinity in units of concentration, obtained from inhibition or displacement. Lower therefore signals tighter binding.

In one assay the target is T1, Carbonic anhydrase (Dicentrarchus labrax, UniProt Q2PCB5).
T1 sequence (Q2PCB5 whole entry): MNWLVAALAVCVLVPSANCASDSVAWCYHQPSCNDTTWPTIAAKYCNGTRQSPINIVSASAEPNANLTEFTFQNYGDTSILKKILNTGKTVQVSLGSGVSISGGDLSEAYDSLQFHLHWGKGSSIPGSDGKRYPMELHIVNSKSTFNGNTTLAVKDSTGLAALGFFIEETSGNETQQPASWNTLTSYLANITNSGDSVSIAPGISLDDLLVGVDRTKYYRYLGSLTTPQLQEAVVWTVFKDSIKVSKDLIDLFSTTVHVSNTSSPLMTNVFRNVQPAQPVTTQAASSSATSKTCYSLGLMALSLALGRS
As to the kind of experiment: Inhibition of Dicentrarchus labrax CA using 4-nitrophenylacetate substrate by esterase assay.

For the next assay, the target named is Carbonic anhydrase 6 (Homo sapiens, UniProt P23280). As to the kind of experiment: Inhibition of human CA6 using 4-nitrophenylacetate substrate by esterase assay.
Chain of Carbonic anhydrase 6 (P23280 whole entry): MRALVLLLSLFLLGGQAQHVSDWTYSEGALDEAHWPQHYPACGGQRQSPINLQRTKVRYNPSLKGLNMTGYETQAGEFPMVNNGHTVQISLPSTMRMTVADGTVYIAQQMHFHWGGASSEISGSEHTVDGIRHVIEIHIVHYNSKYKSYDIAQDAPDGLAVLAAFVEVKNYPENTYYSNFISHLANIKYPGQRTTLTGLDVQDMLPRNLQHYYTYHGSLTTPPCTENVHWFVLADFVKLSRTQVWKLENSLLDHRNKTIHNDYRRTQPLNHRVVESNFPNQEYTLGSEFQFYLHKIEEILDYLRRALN
A further assay concerns the target Carbonic anhydrase 1 (Homo sapiens, UniProt P00915). The experiment in a line: Inhibition of human CA1 using 4-nitrophenylacetate substrate by esterase assay.
For a further assay, the target named is Carbonic anhydrase 2 (Homo sapiens, UniProt P00918). As to the kind of experiment: Inhibition of human CA2 using 4-nitrophenylacetate substrate by esterase assay.

Chain of Carbonic anhydrase 1 (P00915 whole entry): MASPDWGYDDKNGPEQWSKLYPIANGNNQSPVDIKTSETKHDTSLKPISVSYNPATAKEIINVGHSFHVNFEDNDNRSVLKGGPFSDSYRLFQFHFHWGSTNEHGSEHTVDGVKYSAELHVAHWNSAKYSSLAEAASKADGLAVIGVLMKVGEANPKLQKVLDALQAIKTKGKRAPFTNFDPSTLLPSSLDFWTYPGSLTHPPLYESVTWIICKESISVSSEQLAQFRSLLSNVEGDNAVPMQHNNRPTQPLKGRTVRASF

On to `O=C(O)c1cc(O)c(O)c(O)c1` [GALLIC ACID], for which, on Carbonic anhydrase, the affinity corresponds to a Ki of 4.13 µM. Same read-out and setting: the result for `O=C(O)c1ccccc1O` [SALICYLIC ACID] reads 324 µM. In the case of `O=C(O)c1ccc(O)c(O)c1` [PROTOCATECHUIC ACID], the values for the Ki on Carbonic anhydrase 6 and at Carbonic anhydrase were 4.72 µM and 3.21 µM, respectively. In the case of `Oc1cccc(O)c1` [RESORCINOL], the affinity on Carbonic anhydrase, expressed as Ki, was 6.42 µM. Compound `Oc1ccccc1` [PHENOL] registered a Ki at Carbonic anhydrase of 13.7 µM. This Ki lies about 2.1-fold higher than the previous one. At Carbonic anhydrase, `Oc1ccc(O)cc1` [HYDROQUINONE] displayed a Ki of 5.93 µM. On Carbonic anhydrase, `O=C(O)c1cc(O)cc(O)c1` [3,5-DIHYDROXYBENZOIC ACID] had a Ki of 2.13 µM. Consider `Oc1cccc(O)c1O` [PYROGALLOL], for which the Ki at Carbonic anhydrase 1 was found to be 7.41 µM; at Carbonic anhydrase 2 it was 0.54 µM; on Carbonic anhydrase 6, 0.52 µM; on Carbonic anhydrase, 4.39 µM. The compound `O=C(O)c1ccc(O)cc1` [PARABEN] gave a Ki at Carbonic anhydrase of 8.46 µM. With `Oc1ccccc1O` [CATECHOL], the Ki on Carbonic anhydrase was 14.8 µM. For the compound `O=C(O)c1cccc(O)c1` [3-HYDROXYBENZOIC ACID], the inhibition constant Ki on Carbonic anhydrase 6 is 3.17 µM; at Carbonic anhydrase, 98.3 µM.

Take `O=C(OC[C@H]1O[C@@H](OC(=O)c2cc(O)c(O)c(OC(=O)c3cc(O)c(O)c(O)c3)c2)[C@H](OC(=O)c2cc(O)c(O)c(OC(=O)c3cc(O)c(O)c(O)c3)c2)[C@@H](OC(=O)c2cc(O)c(O)c(OC(=O)c3cc(O)c(O)c(O)c3)c2)[C@@H]1OC(=O)c1cc(O)c(O)c(OC(=O)c2cc(O)c(O)c(O)c2)c1)c1cc(O)c(O)c(OC(=O)c2cc(O)c(O)c(O)c2)c1` [TANNIC ACID]: the inhibitory constant (Ki) is 75.9 µM at Carbonic anhydrase 1, 32.8 µM at Carbonic anhydrase 2, 17.8 µM on Carbonic anhydrase 6 and 9.41 µM on Carbonic anhydrase.
